pIC50: −log10 of the molar value. Values belong to the molecule of their own block, whether it stands above or below them.
Legend:
Macrophage = assay: Inhibition of CSF1-induced proliferation of mouse bone marrow derived macrophages
[1] = molecular target: T1, Macrophage colony-stimulating factor 1 receptor (Homo sapiens, UniProt P07333)
Description: Inhibition of ATP-induced CSF1R autophosphorylation

[2] = Metabolic stability in human liver microsomes after 10 mins; format: ADME, Microsome; details: read-out: Stability
[3] = Metabolic stability in rat liver microsomes after 10 mins; format: ADME, Microsome; details: read-out: Stability
[4] = molecular target: T1, Macrophage colony-stimulating factor 1 receptor; assay: Inhibition of CSF1R
[5] = molecular target: Adenosine receptor A2a (Homo sapiens) (UniProt P29274); assay: Inhibition of human A2A receptor at 10 uM
Adenosine receptor A2a (Homo sapiens), sequence (P29274 whole entry): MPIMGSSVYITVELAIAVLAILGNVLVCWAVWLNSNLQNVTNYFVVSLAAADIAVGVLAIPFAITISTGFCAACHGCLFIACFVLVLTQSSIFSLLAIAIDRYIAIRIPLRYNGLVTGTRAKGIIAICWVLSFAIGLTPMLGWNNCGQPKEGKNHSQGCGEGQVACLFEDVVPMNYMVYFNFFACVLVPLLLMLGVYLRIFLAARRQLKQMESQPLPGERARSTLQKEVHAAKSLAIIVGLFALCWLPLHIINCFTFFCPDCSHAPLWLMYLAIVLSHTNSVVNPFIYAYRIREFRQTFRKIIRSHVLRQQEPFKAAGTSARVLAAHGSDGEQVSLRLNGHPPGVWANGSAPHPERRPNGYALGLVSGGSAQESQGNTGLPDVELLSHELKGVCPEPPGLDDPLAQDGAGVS

Mus musculus [6] = assay: Inhibition of LPS-induced TNFalpha production in Swiss Webster mouse plasma at 20 mg/kg, ip after 90 mins; format: functional; set-up: scale not given: the % may be the effect or the level left; details: route intraperitoneal
[7] = molecular target: Proto-oncogene tyrosine-protein kinase Src (Homo sapiens, UniProt P12931); assay: Inhibition of Src
Proto-oncogene tyrosine-protein kinase Src, sequence (P12931 2-536 limits assumed): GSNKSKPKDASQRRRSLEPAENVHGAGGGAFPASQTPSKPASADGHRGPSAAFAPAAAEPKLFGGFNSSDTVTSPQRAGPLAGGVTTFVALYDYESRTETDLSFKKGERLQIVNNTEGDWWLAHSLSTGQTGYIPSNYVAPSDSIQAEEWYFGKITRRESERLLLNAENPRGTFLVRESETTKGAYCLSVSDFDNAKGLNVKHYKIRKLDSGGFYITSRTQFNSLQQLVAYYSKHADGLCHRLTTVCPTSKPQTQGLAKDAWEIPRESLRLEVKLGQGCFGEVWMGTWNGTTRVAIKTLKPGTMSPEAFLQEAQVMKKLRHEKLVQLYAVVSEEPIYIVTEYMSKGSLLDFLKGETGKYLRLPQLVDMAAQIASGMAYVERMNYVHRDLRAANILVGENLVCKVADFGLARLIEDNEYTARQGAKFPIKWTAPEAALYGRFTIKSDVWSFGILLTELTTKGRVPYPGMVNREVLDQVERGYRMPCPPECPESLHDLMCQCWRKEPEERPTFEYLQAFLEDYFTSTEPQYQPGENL

[8] = molecular target: High affinity nerve growth factor receptor (Homo sapiens, UniProt P04629); assay: Inhibition of TrkA
High affinity nerve growth factor receptor, sequence (P04629 whole entry): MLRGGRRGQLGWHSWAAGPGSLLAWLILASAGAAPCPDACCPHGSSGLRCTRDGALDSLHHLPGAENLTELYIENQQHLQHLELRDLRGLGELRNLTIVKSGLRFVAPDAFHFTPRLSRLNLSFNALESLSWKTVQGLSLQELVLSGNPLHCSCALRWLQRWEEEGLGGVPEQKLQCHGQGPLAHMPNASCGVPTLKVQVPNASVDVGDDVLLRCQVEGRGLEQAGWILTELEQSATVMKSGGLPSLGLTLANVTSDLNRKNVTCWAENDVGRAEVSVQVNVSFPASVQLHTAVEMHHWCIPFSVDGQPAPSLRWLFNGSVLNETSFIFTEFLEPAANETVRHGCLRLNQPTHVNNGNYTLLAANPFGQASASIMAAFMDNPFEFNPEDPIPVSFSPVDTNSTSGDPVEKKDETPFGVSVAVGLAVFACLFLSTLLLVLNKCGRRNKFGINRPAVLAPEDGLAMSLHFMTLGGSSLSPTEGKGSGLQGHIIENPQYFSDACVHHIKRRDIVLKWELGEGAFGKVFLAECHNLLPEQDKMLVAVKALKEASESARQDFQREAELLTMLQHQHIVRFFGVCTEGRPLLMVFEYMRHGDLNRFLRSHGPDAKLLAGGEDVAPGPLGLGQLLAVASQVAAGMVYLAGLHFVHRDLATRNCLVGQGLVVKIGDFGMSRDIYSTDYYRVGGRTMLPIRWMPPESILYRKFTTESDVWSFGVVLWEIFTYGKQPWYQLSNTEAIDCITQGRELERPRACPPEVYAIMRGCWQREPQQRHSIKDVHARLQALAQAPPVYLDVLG

[9] = Bioavailability in rat 10 mg/kg, po; format: ADME, organism-based; details: in vivo
[10] = molecular target: T2, Tyrosine-protein kinase receptor UFO (Homo sapiens, UniProt P30530); assay: Inhibition of Axl
T2 sequence (P30530 whole entry): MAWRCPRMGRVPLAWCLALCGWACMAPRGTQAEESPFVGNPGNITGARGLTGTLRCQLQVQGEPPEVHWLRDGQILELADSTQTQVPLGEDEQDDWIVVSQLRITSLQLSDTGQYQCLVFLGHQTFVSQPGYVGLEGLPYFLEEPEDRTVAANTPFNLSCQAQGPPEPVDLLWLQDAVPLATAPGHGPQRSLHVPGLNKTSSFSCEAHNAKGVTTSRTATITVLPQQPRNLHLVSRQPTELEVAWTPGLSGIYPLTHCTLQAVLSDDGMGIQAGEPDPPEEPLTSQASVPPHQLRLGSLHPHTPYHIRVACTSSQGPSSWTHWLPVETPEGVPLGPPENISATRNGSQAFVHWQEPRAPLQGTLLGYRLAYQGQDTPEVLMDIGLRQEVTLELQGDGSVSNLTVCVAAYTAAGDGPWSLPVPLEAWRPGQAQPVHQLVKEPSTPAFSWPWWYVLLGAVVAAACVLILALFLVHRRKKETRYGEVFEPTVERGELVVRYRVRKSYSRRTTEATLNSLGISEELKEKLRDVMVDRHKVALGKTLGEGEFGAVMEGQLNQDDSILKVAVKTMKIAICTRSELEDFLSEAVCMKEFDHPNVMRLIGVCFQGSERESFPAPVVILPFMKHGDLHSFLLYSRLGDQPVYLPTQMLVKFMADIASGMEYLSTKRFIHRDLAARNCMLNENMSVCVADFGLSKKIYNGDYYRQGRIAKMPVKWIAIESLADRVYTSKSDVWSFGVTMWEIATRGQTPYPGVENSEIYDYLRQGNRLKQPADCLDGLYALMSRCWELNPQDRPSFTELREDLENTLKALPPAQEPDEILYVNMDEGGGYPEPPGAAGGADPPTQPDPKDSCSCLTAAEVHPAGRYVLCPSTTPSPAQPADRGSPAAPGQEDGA

Mus musculus [11] = assay: Inhibition of LPS-induced TNFalpha production in Swiss Webster mouse plasma at 50 mg/kg, ip after 90 mins; format: functional; set-up: scale not given: the % may be the effect or the level left; details: route intraperitoneal
[12] = Inhibition of IRKbeta
[13] = Volume of distribution in rat at 2 mg/kg, iv; format: ADME, organism-based; set-up: dose 2 mg/kg, route intravenous; details: in vivo
[14] = molecular target: T3, Adenosine receptor A3 (Homo sapiens) (UniProt P0DMS8); assay: Inhibition of human A3 receptor at 10 uM
T3 sequence (whole entry): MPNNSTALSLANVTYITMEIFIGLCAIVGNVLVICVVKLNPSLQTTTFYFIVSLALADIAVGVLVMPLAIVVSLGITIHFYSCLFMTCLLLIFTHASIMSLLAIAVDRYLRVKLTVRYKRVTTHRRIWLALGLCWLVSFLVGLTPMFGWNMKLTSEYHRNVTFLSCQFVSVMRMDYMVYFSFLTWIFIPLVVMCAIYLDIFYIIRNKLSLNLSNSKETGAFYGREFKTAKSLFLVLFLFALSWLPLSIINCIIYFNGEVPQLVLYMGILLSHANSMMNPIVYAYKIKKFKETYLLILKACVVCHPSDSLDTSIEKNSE

[15] = Clearance in rat at 2 mg/kg, iv; format: ADME, organism-based; set-up: dose 2 mg/kg, route intravenous; details: in vivo
[16] = molecular target: Platelet-derived growth factor receptor beta (Homo sapiens, UniProt P09619); assay: Inhibition of PDGFRbeta
Platelet-derived growth factor receptor beta, sequence (P09619 whole entry): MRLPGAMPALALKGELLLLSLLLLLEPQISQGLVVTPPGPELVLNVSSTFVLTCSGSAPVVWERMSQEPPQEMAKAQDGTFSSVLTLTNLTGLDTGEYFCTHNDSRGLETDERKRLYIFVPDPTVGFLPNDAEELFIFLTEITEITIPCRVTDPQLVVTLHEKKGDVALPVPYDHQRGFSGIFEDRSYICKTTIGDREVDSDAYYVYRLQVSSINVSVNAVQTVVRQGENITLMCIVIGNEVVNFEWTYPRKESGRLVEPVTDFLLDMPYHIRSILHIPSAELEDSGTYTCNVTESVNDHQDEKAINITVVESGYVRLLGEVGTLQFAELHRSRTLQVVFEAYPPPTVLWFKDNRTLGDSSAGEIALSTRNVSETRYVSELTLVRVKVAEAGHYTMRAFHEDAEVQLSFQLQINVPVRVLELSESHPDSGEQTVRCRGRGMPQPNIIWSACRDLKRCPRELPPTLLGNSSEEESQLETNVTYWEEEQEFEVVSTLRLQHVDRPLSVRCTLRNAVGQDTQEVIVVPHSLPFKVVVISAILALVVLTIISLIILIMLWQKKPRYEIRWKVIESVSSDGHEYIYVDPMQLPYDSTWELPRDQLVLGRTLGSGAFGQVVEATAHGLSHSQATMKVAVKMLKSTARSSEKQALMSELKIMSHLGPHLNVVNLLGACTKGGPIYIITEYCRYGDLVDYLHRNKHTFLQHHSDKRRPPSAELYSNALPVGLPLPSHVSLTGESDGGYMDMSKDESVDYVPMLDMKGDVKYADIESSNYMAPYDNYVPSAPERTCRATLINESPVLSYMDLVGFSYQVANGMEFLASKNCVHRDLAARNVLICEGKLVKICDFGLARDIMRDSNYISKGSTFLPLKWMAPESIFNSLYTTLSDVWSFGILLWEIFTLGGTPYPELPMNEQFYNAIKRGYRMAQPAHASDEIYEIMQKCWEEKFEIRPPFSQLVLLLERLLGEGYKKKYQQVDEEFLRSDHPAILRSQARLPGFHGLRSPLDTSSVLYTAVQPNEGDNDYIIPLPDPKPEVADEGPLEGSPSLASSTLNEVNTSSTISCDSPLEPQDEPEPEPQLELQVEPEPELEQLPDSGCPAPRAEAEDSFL

[17] = molecular target: T4, Receptor-type tyrosine-protein kinase FLT3 (Homo sapiens, UniProt P36888); assay: Inhibition of FLT3
T4 sequence (P36888 whole entry): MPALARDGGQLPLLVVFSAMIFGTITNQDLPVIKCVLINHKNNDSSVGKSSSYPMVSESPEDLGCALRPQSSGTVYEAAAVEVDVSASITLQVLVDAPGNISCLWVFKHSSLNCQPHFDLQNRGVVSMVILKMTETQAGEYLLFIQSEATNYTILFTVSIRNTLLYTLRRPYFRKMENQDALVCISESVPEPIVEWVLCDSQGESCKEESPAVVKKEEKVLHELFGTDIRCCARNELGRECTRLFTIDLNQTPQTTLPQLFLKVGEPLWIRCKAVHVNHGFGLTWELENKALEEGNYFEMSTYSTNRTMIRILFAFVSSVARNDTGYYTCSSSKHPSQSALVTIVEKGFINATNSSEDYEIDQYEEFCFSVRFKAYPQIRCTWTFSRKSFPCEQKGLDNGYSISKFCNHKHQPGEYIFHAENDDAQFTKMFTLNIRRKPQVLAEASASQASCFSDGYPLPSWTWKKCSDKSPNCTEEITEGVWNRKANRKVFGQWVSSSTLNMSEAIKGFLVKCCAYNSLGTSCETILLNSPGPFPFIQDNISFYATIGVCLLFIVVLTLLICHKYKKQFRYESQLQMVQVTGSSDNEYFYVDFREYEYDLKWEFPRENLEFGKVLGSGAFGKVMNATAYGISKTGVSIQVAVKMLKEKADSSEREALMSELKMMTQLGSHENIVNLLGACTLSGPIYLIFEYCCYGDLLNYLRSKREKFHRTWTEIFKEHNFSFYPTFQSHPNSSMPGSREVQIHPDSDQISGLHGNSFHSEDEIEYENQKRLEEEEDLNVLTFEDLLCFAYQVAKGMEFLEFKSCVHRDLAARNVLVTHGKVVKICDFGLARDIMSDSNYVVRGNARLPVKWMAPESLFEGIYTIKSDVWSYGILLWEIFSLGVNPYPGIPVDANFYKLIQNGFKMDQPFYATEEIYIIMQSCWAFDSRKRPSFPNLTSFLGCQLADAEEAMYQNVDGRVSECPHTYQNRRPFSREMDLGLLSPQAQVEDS

[18] = molecular target: Mast/stem cell growth factor receptor Kit (Homo sapiens, UniProt P10721); assay: Inhibition of KIT
Mast/stem cell growth factor receptor Kit, sequence (P10721 whole entry): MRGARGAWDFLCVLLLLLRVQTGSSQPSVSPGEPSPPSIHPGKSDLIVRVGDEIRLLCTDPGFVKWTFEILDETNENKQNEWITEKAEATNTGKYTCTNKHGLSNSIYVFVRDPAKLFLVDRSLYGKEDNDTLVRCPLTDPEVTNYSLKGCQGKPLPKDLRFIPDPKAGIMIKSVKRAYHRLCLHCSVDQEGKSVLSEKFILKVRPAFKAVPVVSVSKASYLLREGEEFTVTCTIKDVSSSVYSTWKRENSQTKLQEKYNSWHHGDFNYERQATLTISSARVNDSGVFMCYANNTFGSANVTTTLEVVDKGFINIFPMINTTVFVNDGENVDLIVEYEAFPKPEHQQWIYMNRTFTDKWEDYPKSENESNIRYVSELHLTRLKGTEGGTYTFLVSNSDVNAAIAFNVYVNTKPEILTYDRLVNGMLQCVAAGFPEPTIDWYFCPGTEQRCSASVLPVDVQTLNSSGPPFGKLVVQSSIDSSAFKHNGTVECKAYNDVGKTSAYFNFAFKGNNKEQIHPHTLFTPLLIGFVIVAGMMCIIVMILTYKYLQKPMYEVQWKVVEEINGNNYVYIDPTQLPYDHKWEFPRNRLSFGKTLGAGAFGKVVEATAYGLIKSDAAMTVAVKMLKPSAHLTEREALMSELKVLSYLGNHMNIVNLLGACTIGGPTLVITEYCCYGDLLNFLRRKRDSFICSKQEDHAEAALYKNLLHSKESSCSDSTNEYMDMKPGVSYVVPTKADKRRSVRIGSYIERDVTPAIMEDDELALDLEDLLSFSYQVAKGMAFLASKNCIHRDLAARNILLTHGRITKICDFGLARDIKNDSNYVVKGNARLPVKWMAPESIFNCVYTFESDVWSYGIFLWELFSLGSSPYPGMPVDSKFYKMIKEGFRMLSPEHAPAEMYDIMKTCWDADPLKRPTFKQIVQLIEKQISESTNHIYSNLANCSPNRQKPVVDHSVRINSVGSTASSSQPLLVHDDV

[19] = molecular target: T3, Adenosine receptor A3 (Homo sapiens); assay: Inhibition of human A3 receptor at 5 uM

T1 sequence (P07333 whole entry): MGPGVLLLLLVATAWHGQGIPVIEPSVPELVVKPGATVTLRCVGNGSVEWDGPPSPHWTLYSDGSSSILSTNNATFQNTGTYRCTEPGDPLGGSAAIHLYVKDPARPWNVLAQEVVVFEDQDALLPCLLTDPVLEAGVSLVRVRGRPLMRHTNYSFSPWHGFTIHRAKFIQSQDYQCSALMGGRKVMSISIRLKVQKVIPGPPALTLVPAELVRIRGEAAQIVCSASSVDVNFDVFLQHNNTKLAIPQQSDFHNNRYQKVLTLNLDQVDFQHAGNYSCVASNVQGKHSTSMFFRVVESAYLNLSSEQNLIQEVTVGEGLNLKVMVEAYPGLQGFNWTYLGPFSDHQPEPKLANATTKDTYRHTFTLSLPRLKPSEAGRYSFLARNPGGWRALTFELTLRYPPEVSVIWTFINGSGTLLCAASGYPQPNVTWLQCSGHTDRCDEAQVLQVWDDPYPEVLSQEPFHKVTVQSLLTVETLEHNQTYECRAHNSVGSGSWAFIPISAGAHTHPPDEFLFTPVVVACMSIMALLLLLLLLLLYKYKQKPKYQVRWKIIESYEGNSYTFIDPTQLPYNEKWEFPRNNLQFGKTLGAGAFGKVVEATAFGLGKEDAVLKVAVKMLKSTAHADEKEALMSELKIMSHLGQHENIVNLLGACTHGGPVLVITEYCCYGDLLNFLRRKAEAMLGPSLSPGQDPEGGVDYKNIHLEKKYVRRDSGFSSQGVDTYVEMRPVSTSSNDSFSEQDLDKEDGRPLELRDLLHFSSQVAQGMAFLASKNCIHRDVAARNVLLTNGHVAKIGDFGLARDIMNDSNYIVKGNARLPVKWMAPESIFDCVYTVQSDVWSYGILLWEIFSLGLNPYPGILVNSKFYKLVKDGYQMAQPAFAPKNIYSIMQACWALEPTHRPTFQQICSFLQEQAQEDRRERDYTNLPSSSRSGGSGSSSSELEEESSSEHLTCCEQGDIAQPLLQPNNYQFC

SMILES: NC(=O)c1cn(-c2ccc3c(c2)CCC3)c2nc(Nc3ccc(N4CCNCC4)cc3)ncc2c1=O
pIC50 (Macrophage): 8.40

SMILES: CC1CN(c2ccc(Nc3ncc4c(=O)c(C(N)=O)cn(-c5ccc6c(c5)CCC6)c4n3)cc2)CC(C)N1 (centres undefined)
pIC50 (Macrophage): 8.52

SMILES: NC(=O)c1cn(-c2ccc3c(c2)CCC3)c2nc(Nc3cccc(C(=O)N4CCCCC4)c3)ncc2c1=O
pIC50 (Macrophage): 7.85

SMILES: NC(=O)c1cn(-c2ccc3c(c2)CCC3)c2nc(Nc3ccccc3)ncc2c1=O
pIC50 [1]: 6.55

SMILES: CN1CCN(CCCNc2ncc3c(=O)c(C(N)=O)cn(-c4ccc5c(c4)CCC5)c3n2)CC1
pIC50 [1]: 5.74

SMILES: NC(=O)c1cn(-c2ccc3c(c2)CCC3)c2nc(Nc3ccc(C[C@H]4COC(=O)N4)cc3)ncc2c1=O
pIC50 (Macrophage): 7.05

SMILES: CCOC(=O)c1nc2cnc(Nc3ccccc3)nc2n(-c2ccccc2)c1=O [PTERIDINONE]
pIC50 [4]: 6.74

SMILES: NC(=O)c1cn(-c2ccc3c(c2)CCC3)c2nc(Nc3ccc(C4CCNCC4)cc3)ncc2c1=O
pIC50 (Macrophage): 7.29

SMILES: CN1CCN(c2cccc(Nc3ncc4c(=O)c(C(N)=O)cn(-c5ccc6c(c5)CCC6)c4n3)c2)CC1
pIC50 (Macrophage): 8.22

More lines, main results first:

pIC50 [1]: 6.60
SMILES: CCOC(=O)c1cn(-c2ccc3c(c2)CCC3)c2nc(Nc3ccc(N4CCN(C)CC4)cc3)ncc2c1=O
pIC50 (Macrophage): 6.33

remaining at 10 min [2]: 96% | remaining at 10 min [3]: 84%
SMILES: CN1CCN(CCc2ccc(Nc3ncc4c(=O)c(C(N)=O)cn(-c5ccc6c(c5)CCC6)c4n3)cc2)CC1
pIC50 (Macrophage): 8.05

remaining at 10 min [2]: 58% | remaining at 10 min [3]: 83% | pIC50 [1]: 8.10
SMILES: NC(=O)c1cn(-c2ccc3c(c2)CCC3)c2nc(Nc3ccc(CCN4CCOCC4)cc3)ncc2c1=O
pIC50 (Macrophage): 8.10

inhibition [5]: 58% | remaining at 10 min [2]: 74% | pIC50 [7]: 5.82 | remaining at 10 min [3]: 54% | pIC50 [8]: 6.51 | bioavailability [9]: 4% | pIC50 [10]: < 6.30 | pIC50 [12]: < 5.70 | Vd [13]: 26.5 L/kg | inhibition [14]: 60% | clearance [15]: 29 mL/min/kg | pIC50 [16]: < 5.70 | pIC50 [17]: 9.00 | pIC50 [18]: 7.55
SMILES: CN1CCN(Cc2ccc(Nc3ncc4c(=O)c(C(N)=O)cn(-c5ccc6c(c5)CCC6)c4n3)cc2)CC1
Activity (Mus musculus [6]): 81% | Activity (Mus musculus [11]): 87% | pIC50 (Macrophage): 7.96

remaining at 10 min [2]: 88% | remaining at 10 min [3]: 65%
SMILES: CN(C)CCc1ccc(Nc2ncc3c(=O)c(C(N)=O)cn(-c4ccc5c(c4)CCC5)c3n2)cc1
pIC50 (Macrophage): 7.80

remaining at 10 min [2]: 35% | remaining at 10 min [3]: 38%
SMILES: CN(C)Cc1ccc(Nc2ncc3c(=O)c(C(N)=O)cn(-c4ccc5c(c4)CCC5)c3n2)cc1
pIC50 (Macrophage): 8.40

inhibition [19]: 55% | remaining at 10 min [2]: 80.5% | pIC50 [7]: 6.00 | remaining at 10 min [3]: 87.3% | pIC50 [8]: 6.70 | pIC50 [10]: < 6.52 | pIC50 [12]: < 6.00 | pIC50 [4]: 7.89 | Vd [13]: 18.7 L/kg | clearance [15]: 133 mL/min/kg | pIC50 [16]: < 6.00 | pIC50 [17]: 8.52 | pIC50 [18]: 7.25
SMILES: CN1CCN(c2ccc(Nc3ncc4c(=O)c(C(N)=O)cn(-c5ccc6c(c5)CCC6)c4n3)cc2)CC1
pIC50 (Macrophage): 7.80

remaining at 10 min [2]: 2.5% | remaining at 10 min [3]: 9.7% | pIC50 [1]: 7.66
SMILES: NC(=O)c1cn(-c2ccc3c(c2)CCC3)c2nc(Nc3ccc(CN4CCOCC4)cc3)ncc2c1=O
pIC50 (Macrophage): 7.57
